Holding throughout (type): biochemical
For one assay, the target named is CDK4/D1 (Homo sapiens, UniProt P11802). Nature of the assay: ADP Glo Kinase assay CDK4/D1. As to conditions: CDK4D1; for remaining activity at 10 µM: compound at 10 μM, read-out: residual activity (%) at 10 μM CDK4D1; for Ki: read-out: CDK inhibition, Ki (μM) CDK4D1. A digest of the protocol:
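ADP Glo luminescence, in-house: CDK4/D1, CDK6/D3 on RB-CTF substrate (Tris pH 7.5, MgCl2, DTT, BSA); CDK9/T1 on RBER-IRStide. Reaction 40 min, 37° C after ATP addition. 10-point 1:3 series, 10 μM to 0.5 nM. IC50 by 4-parameter logistic; Ki derived using ATP Km.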
A general note: ADP-Glo first removes unused ATP, then detects ADP through luciferase.

The target of the next assay is CDK6/D3 (Homo sapiens, UniProt Q00534). Put plainly: ADP Glo Kinase assay CDK6/D3. As to conditions: CDK6D3; for remaining activity at 10 µM: compound at 10 μM, read-out: residual activity (%) at 10 μM CDK6D3; for Ki: read-out: CDK inhibition, Ki (μM) CDK6D3. As for the experimental part:
Eurofins Pharma Discovery or Reaction Biology Corporation Kinase Profiler services were used to measure inhibition of CDKs and other kinases by radiometric assay. Inhibition of CDK4/D1, CDK6/D3 and CDK9/T1 were also determined in-house using ADP Glo Kinase assays (Promega Corporation, Madison, USA). Briefly, the kinase reaction for CDK4/D1 and CDK6/D3 was performed with kinase reaction buffer ([…] Tris base pH 7.5, 20 mM MgCl2, 0.4 mM DTT), 0.1 mg/ml BSA and RB-CTF substrate (retinoblastoma protein 1 C-terminal fraction). For CDK9/CyclinT1, the kinase reaction was performed with standard assay buffer and Kinase Dilution Buffer and RBER-IRStide substrate. Serial dilutions of 1:3 were prepared for test compounds for 10 concentrations (from 10 μM to 0.5 nM). The kinase reactions were started by addition of ATP, incubated for 40 min at 37° C. and then stopped by adding 10 μL of ADP Glo reagent. After incubation at room temperature in the dark for 40 min, 20 μL of kinase detection reagent was added per well and incubated for 40 min. Luminescence was measured using an EnVision Multilabel plate reader (PerkinElmer, Buckinghamshire, UK). Positive and negative controls were performed in the presence and absence of CDK kinases, respectively. Half-maximal inhibition (IC50) values were calculated using a 4-parameter logistic non-linear regression model with Graphpad prism (Version 6.0). Apparent inhibition constants (Ki) values were calculated from Km (ATP) and IC50 values for the respective kinases.

A further assay concerns the target CDK9/T1 (Homo sapiens, UniProt P50750). Put plainly: ADP Glo Kinase assay CDK9/T1. As to conditions: CDK9T1; read-out: CDK inhibition, Ki (μM) CDK9T1. A digest of the protocol: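 Luminescent ADP detection measured activity after a 40 min, 37° C ATP-initiated reaction, using RB-CTF for CDK4/D1 and CDK6/D3 and RBER-IRStide for CDK9/T1. Controls lacked or contained kinase. Values: IC50 by four-parameter nonlinear regression, Ki from ATP Km.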

In assay [1] the target is T1, CDKs and other kinases (Homo sapiens, UniProt P06493).
T1 construct: other: CDK1B; residual activity (%) at 10 μM CDK1B; compound at 10 μM
Nature of the assay: Radiometric kinase assay (Eurofins Pharma Discovery or Reaction Biology Corporation Kinase Profiler). As to conditions: CDK1B; for remaining activity at 10 µM: compound at 10 μM, read-out: residual activity (%) at 10 μM CDK1B; for Ki: read-out: CDK inhibition, Ki (μM) CDK1B. A digest of the protocol: (§1)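 Other CDKs and further kinases were profiled externally by radiometric assay. In-house ADP Glo assays covered CDK4/D1 and CDK6/D3 (RB-CTF substrate, pH 7.5 Tris buffer with MgCl2, DTT, BSA) and CDK9/T1 (RBER-IRStide substrate), 40 min at 37° C.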

The target in assay [2] is T2, CDKs and other kinases (Homo sapiens, UniProt P24941).
T2 construct: other: CDK2A; residual activity (%) at 10 μM CDK2A; compound at 10 μM
Described as above. As to conditions: CDK2A; for remaining activity at 10 µM: compound at 10 μM, read-out: residual activity (%) at 10 μM CDK2A; for Ki: read-out: CDK inhibition, Ki (μM) CDK2A. A digest of the protocol:
as §1

The target of assay [3] is T3, CDKs and other kinases (Homo sapiens, UniProt P50613).
T3 construct: other: CDK7H; residual activity (%) at 10 μM CDK7H; compound at 10 μM
The description is as above. As to conditions: CDK7H; for remaining activity at 10 µM: compound at 10 μM, read-out: residual activity (%) at 10 μM CDK7H; for Ki: read-out: CDK inhibition, Ki (μM) CDK7H. A digest of the protocol: as §1

A value given as a limit tells only on which side of the number the result lay.

Sequence of CDK6/D3 (Q00534 whole entry): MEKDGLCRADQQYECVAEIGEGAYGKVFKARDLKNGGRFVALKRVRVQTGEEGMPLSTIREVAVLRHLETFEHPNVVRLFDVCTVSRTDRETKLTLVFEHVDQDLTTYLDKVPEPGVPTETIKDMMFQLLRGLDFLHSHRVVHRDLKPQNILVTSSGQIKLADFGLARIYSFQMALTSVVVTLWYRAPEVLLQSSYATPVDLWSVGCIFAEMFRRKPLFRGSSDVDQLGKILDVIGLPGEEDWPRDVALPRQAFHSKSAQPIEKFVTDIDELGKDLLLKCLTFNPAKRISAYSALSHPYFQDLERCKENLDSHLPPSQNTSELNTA
Sequence of CDK6/D3 (P30281 whole entry partner): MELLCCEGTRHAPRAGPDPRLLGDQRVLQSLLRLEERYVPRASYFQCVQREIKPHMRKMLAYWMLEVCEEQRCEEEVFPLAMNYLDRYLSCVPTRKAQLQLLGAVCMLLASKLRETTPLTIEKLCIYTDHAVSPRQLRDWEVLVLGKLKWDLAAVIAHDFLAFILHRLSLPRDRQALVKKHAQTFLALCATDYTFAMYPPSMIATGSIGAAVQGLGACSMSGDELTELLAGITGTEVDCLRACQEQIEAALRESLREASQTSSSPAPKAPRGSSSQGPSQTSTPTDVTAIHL
T3 sequence (P50613 whole entry): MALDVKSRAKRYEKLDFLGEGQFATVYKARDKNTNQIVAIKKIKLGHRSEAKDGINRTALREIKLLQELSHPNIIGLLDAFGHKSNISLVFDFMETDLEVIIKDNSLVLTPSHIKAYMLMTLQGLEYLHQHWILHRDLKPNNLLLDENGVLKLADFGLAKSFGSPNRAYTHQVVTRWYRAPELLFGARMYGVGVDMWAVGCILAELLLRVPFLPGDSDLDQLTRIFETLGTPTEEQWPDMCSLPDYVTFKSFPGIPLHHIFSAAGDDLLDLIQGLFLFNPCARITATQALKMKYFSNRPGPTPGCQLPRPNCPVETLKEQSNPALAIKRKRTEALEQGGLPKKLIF
T1 sequence (P06493 whole entry): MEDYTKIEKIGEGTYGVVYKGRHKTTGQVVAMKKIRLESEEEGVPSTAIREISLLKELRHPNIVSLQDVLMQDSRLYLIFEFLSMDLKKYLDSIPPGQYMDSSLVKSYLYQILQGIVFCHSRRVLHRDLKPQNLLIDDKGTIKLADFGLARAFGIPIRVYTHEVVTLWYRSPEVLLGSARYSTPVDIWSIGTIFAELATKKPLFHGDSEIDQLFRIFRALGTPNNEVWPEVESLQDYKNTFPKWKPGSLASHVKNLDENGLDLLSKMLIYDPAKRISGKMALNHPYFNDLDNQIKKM
Sequence of CDK9/T1 (P50750 whole entry): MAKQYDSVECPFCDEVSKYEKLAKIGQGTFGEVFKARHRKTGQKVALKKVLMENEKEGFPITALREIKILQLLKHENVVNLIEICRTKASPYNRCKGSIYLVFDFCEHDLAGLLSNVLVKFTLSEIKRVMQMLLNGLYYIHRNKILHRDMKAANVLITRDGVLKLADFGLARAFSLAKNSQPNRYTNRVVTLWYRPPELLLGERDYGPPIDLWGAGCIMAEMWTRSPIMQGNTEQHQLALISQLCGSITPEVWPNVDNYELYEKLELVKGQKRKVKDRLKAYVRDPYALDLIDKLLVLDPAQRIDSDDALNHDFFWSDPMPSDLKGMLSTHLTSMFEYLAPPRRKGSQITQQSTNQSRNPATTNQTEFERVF
Sequence of CDK9/T1 (O60563 whole entry partner): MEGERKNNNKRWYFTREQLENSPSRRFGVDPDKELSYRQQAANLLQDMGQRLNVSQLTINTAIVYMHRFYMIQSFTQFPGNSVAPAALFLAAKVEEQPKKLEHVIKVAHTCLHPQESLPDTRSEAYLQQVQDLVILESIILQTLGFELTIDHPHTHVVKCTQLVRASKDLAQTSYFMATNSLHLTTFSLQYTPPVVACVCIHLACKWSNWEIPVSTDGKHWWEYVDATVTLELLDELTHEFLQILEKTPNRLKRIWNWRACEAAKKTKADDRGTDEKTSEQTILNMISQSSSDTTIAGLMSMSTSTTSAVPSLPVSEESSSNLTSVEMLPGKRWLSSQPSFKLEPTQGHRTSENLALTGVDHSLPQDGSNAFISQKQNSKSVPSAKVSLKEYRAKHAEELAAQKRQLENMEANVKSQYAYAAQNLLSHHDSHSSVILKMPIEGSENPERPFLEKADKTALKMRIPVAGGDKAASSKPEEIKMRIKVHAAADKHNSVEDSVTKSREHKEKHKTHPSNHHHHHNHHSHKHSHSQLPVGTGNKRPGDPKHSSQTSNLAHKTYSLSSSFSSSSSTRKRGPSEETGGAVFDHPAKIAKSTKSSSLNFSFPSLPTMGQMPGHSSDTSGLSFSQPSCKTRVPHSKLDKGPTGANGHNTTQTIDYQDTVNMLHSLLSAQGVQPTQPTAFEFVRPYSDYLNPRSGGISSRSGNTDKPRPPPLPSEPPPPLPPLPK
Sequence of CDK4/D1 (P11802 whole entry): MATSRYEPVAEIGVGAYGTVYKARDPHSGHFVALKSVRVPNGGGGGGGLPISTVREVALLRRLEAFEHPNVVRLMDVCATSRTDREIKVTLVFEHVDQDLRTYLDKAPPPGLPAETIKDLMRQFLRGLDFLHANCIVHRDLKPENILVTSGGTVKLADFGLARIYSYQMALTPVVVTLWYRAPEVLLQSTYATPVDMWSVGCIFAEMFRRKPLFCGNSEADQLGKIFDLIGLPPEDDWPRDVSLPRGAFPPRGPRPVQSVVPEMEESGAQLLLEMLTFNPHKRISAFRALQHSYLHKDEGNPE
Sequence of CDK4/D1 (P24385 whole entry partner): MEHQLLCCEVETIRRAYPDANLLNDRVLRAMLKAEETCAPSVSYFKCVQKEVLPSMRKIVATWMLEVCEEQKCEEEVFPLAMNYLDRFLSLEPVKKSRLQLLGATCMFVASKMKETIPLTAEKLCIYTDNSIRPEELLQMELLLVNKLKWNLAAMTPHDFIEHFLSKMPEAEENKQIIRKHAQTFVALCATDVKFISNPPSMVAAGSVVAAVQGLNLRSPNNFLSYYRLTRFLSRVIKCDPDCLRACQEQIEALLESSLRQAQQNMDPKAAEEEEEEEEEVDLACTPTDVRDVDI

For the compound `Cc1cnc(N[C@H]2CC[C@H](N)CC2)nc1-c1cnc2ccc(Oc3cncnc3)cn12` [Compound 75, (1r,4r)-N^1-(5-Methyl-4-(6-(pyrimidin-5-yloxy)imidazo [1,2-a]pyridin-3-yl)pyrimidin-2-yl)cyclohexane-1,4-diamine], the remaining activity at 10 µM amounted to 41% at CDK4/D1; 46% on CDK6/D3; 52% at CDKs and other kinases [1]; 22% on CDKs and other kinases [2]; 50% on CDKs and other kinases [3]. At CDK9/T1, the Ki (in general, a dissociation constant, usually derived from enzyme kinetics or from competition with a known ligand) was determined as 0.034 µM.
In the case of `Cc1cnc(N[C@H]2CN3CCC2CC3)nc1-c1cnc2ccc(Nc3cncnc3)cn12` [Compound 76, (R)-N-(5-Methyl-4-(6-(pyrimidin-5-ylamino)imidazo [1,2-a]pyridin-3-yl)pyrimidin-2-yl)quinuclidin-3-amine], the remaining activity at 10 µM on CDK4/D1 was determined as 91%; at CDK6/D3, 89%; on CDKs and other kinases [1] it was 72%; at CDKs and other kinases [2], 59%; on CDKs and other kinases [3], 92%. The Ki at CDK9/T1 turned out to be 0.485 µM.
On to `N[C@H]1CC[C@H](Nc2ncc(Cl)c(-c3cnc4cc(-c5ccccc5)ccn34)n2)CC1` [Compound 77, (1r,4r)-N^1-(5-Chloro-4-(7-phenylimidazo[1,2-a]pyridin-3-yl)pyrimidin-2-yl)cyclohexane-1,4-diamine], for which the remaining activity at 10 µM at CDK4/D1 turned out to be 5%; at CDK6/D3 it was 6%; on CDKs and other kinases [1], 5%; on CDKs and other kinases [2], 0%; on CDKs and other kinases [3], 3%. Besides, the Ki at CDK9/T1 was determined as 0.011 µM.
With `N[C@H]1CC[C@H](Nc2ncc(Cl)c(-c3cnc4cc(-c5cccnc5)ccn34)n2)CC1` [Compound 78, (1r,4r)-N^1-(5-Chloro-4-(7-(pyridin-3-yl)imidazo[1,2-a]pyridin-3-yl)pyrimidin-2-yl)cyclohexane-1,4-diamine], the remaining activity at 10 µM on CDK4/D1 came out at 10%; on CDK6/D3 it was 3%; on CDKs and other kinases [1] it was 7%; on CDKs and other kinases [2] it was 0%; at CDKs and other kinases [3], 3%. Besides, the Ki on CDK9/T1 turned out to be 0.019 µM.
As to `N[C@H]1CC[C@H](Nc2ncc(Cl)c(-c3cnc4ccc(Nc5cncnc5)cn34)n2)CC1` [Compound 88, (1r,4r)-N^1-(5-Chloro-4-(6-(pyrimidin-5-ylamino)imidazo [1,2-a]pyridin-3-yl)pyrimidin-2-yl)cyclohexane-1,4-diamine], the Ki on CDK4/D1 was 0.06 µM; at CDK6/D3, 0.034 µM; at CDK9/T1 it was 0.002 µM; on CDKs and other kinases [1], 0.16 µM; at CDKs and other kinases [2], 0.019 µM; on CDKs and other kinases [3], 1.26 µM.
With `CNC1CCC(Nc2ncc(C)c(-c3cnc4ccc(Nc5cncnc5)cn34)n2)CC1` (stereo not drawn) [Compound 109, N^1-Methyl-N^4-(5-Methyl-4-(6-(pyrimidin-5-ylamino)imidazo[1,2-a]pyridin-3-yl)pyrimidin-2-yl)cyclohexane-1,4-diamine], the Ki is 0.94 µM at CDK4/D1; 0.21 µM on CDK6/D3; 0.008 µM at CDK9/T1; 1.26 µM at CDKs and other kinases [1]; 0.18 µM on CDKs and other kinases [2]; more than 10 µM on CDKs and other kinases [3].
Turning to `C[C@]12C[C@]3(C)C[C@](O)(C1)C[C@](Nc1ncc(F)c(-c4cnc5ccc(-c6ccccc6)cn45)n1)(C2)C3` [Compound 110, (1s,3r,5R,7S)-3-((5-Fluoro-4-(6-phenylimidazo[1,2-a]pyridin-3-yl)pyrimidin-2-yl)amino)-5,7-dimethyladamantan-1-ol], the remaining activity at 10 µM at CDK4/D1 was found to be 99%; at CDK6/D3, 100%; at CDKs and other kinases [1], 66%; at CDKs and other kinases [2], 61%; at CDKs and other kinases [3] it was 87%. Also, the Ki on CDK9/T1 was more than 5 µM.

Source of the values: US11111245B2, “Derivatives of N-cycloalkyl/heterocycloalkyl-4-(imidazo[1,2-a]pyridine)pyrimidin-2-amine as therapeutic agents” (Aucentra Therapeutics Pty Ltd, priority 2017, dated 2021).
